The results in this text go back to patent US20080242685A1, “Chemical Compounds” (Smithkline Beecham Corporation, priority 2005, published 2008).

For the assay, the target named is T1, Recombinant human IKKβ (residues 1-737) (Homo sapiens, UniProt O14920).
T1 construct: Recombinant human IKKβ (residues 1-737); GST (C); made in house
T1 sequence (O14920 1-737): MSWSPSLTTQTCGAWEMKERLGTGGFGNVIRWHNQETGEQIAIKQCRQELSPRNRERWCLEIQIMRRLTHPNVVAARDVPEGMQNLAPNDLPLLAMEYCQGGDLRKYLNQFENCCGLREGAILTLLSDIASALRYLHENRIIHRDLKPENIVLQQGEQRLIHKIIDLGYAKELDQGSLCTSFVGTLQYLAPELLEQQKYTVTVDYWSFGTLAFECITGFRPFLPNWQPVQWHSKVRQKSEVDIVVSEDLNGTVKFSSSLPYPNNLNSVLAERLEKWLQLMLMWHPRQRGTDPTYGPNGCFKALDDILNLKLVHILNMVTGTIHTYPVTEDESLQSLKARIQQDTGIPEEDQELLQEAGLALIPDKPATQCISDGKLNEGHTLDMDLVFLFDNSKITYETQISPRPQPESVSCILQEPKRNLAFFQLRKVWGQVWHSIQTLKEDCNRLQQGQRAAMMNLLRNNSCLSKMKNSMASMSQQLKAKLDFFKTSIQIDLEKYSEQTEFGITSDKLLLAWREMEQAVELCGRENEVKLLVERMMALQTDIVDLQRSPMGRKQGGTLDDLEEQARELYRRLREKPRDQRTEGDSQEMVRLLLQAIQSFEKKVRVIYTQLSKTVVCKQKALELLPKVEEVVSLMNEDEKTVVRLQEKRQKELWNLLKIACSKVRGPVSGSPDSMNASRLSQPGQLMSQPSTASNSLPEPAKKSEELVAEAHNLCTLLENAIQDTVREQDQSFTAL
The experiment in a line: IKK2 Assay (TR-FRET). The assay is classed as biochemical. The note with it: IKK2 5 nM, GST-IκBα substrate 25 nM, ATP 1 μM, 30 minutes at room temperature, read-out: pIC50 against IKK2 (converted). As for the experimental part: Recombinant human IKKβ (residues 1-737) was expressed in baculovirus as a C-terminal GST-tagged fusion protein, and its activity was assessed using a time-resolved fluorescence resonance energy transfer (TR-FRET) assay. Briefly, IKK2 (5 nM final) diluted in assay buffer (50 mM HEPES, 10 mM MgCl2, 1 mM CHAPS pH 7.4 with 1 mM DTT and 0.01% w/v BSA) was added to wells containing various concentrations of compound or DMSO vehicle (3% final). The reaction was initiated by the addition of GST-IκBα substrate (25 nM final)/ATP (1 μM final), in a total volume of 30 μl. The reaction was incubated for 30 minutes at room temperature, then terminated by the addition of 15 μl of 50 mM EDTA. Detection reagent (15 μl) in buffer (100 mM HEPES pH 7.4, 150 mM NaCl and 0.1% w/v BSA) containing antiphosphoserine-IκBα-32/36 monoclonal antibody 12C2 (Cell Signalling Technology, Beverly Mass., USA) labelled with W-1024 europium chelate (Wallac OY, Turku, Finland), and an APC-labelled anti-GST antibody (Prozyme, San Leandro, Calif., USA) was added and the reaction was further incubated for 60 minutes at room temperature. The degree of phosphorylation of GST-IκBα was measured using a Packard Discovery plate reader (Perkin-Elmer Life Sciences, Pangbourne, UK) as a ratio of specific 665 nm energy transfer signal to reference europium 620 nm signal.
As to `CC(C)(C)OC(=O)N1CC=C(c2c[nH]c3c(C(N)=O)nc(-c4ccccc4)cc23)CC1` [Example 5, 1,1-dimethylethyl 4-[7-(aminocarbonyl)-5-phenyl-1H-pyrrolo[2,3-c]pyridin-3-yl]-3,6-dihydro-1(2H)-pyridinecarboxylate], the IC50 was not above 10 µM. As to `CC(C)(C)OC(=O)N1CCC(c2c[nH]c3c(C(N)=O)nc(-c4ccccc4)cc23)CC1` [Example 6, 1,1-dimethylethyl 4-[7-(aminocarbonyl)-5-phenyl-1H-pyrrolo[2,3-c]pyridin-3-yl]-1-piperidinecarboxylate], the IC50 was not above 10 µM.

Turning to `NC(=O)c1nc(-c2ccccc2)cc2c(C3CCNCC3)c[nH]c12` [Example 7, 5-phenyl-3-(4-piperidinyl)-1H-pyrrolo[2,3-c]pyridine-7-carboxamide], the IC50 was not above 10 µM. In the case of `CCS(=O)(=O)N1CCC(c2c[nH]c3c(C(N)=O)nc(-c4ccccc4)cc23)CC1` [Example 8, 3-[1-(ethylsulfonyl)-4-piperidinyl]-5-phenyl-1H-pyrrolo[2,3-c]pyridine-7-carboxamide] it was not above 10 µM. Regarding `NC(=O)c1nc(-c2ccccc2)cc2cc[nH]c12` [Example 14, 5-phenyl-1H-pyrrolo[2,3-c]pyridine-7-carboxamide], the IC50 is not above 10 µM.
